Consider 18 molecules from patent US8580794B2 (AbbVie Inc., priority 2009, dated 2013).

Bounds are passed on as bounds.

For the assay, the target named is GST-Bc1-2 (Homo sapiens, UniProt P10415). The assay is described as follows: Time Resolved-Fluorescence Resonance Energy Transfer (TR-FRET) Bcl-2 binding assay with F-Bak peptide probe. Particulars: GST-Bcl-2 1 nM, F-Bak probe 100 nM, Tb-anti-GST 1 nM; '<' = below limit of detection; read-out: TR-FRET Bcl-2 Binding Ki.
Sequence of GST-Bc1-2 (P10415 whole entry): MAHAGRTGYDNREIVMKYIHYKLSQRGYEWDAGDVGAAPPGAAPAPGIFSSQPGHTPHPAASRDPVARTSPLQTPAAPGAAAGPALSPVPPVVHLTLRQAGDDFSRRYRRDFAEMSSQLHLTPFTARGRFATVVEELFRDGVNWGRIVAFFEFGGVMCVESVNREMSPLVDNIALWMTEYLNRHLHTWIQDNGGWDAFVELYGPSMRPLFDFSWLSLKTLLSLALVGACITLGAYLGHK
On to `CC1(C)CCC(CN2CCN(c3ccc(C(=O)NS(=O)(=O)c4ccc(NCCCN(C5CC5)C5COC5)c([N+](=O)[O-])c4)c(Oc4cnc5[nH]ccc5c4)c3)CC2)=C(c2ccc(Cl)cc2)C1` [Example 311, 4-(4-{[2-(4-chlorophenyl)-4,4-dimethylcyclohex-1-en-1-yl]methyl}piperazin-1-yl)-N-{[4-({3-[cyclopropyl(oxetan-3-yl)amino]propyl}amino)-3-nitrophenyl]sulfonyl}-2-(1H-pyrrolo[2,3-b]pyridin-5-yloxy)benzamide], for which the Ki was less than 0.01 nM.

For `CN1CCC[C@H]1C(=O)N1CCC(COc2ccc(S(=O)(=O)NC(=O)c3ccc(N4CCN(CC5=C(c6ccc(Cl)cc6)CC(C)(C)CC5)CC4)cc3Oc3cnc4[nH]ccc4c3)cc2Cl)CC1` [Example 312, N-[(3-chloro-4-{[1-(1-methyl-L-prolyl)piperidin-4-yl]methoxy}phenyl)sulfonyl]-4-(4-{[2-(4-chlorophenyl)-4,4-dimethylcyclohex-1-en-1-yl]methyl}piperazin-1-yl)-2-(1H-pyrrolo[2,3-b]pyridin-5-yloxy)benzamide], the Ki was less than 0.01 nM.

Take `CC1(C)CCC(CN2CCN(c3ccc(C(=O)NS(=O)(=O)c4cc(F)c(F)c(OCC5(F)CCOCC5)c4)c(Oc4cnc5[nH]ccc5c4)c3)CC2)=C(c2ccc(Cl)cc2)C1` [Example 313, 4-(4-{[2-(4-chlorophenyl)-4,4-dimethylcyclohex-1-en-1-yl]methyl}piperazin-1-yl)-N-({3,4-difluoro-5-[(4-fluorotetrahydro-2H-pyran-4-yl)methoxy]phenyl}sulfonyl)-2-(1H-pyrrolo[2,3-b]pyridin-5-yloxy)benzamide]: the Ki came to 1.1 nM.

As for `CC1(C)CCC(CC2CCN(c3ccc(C(=O)NS(=O)(=O)c4ccc(NCC5CCOCC5)c([N+](=O)[O-])c4)c(Oc4cnc5[nH]ccc5c4)c3)CC2)=C(c2ccc(Cl)cc2)C1` [Example 315, 4-(4-{[2-(4-chlorophenyl)-4,4-dimethylcyclohex-1-en-1-yl]methyl}piperidin-1-yl)-N-({3-nitro-4-[(tetrahydro-2H-pyran-4-ylmethyl)amino]phenyl}sulfonyl)-2-(1H-pyrrolo[2,3-b]pyridin-5-yloxy)benzamide], the Ki worked out at 0.052 nM.

Turning to `CC1(C)CCC(CC2CCN(c3ccc(C(=O)NS(=O)(=O)c4ccc(OCC5CCOCC5)c(Cl)c4)c(Oc4cnc5[nH]ccc5c4)c3)CC2)=C(c2ccc(Cl)cc2)C1` [Example 316, 4-(4-{[2-(4-chlorophenyl)-4,4-dimethylcyclohex-1-en-1-yl]methyl}piperidin-1-yl)-N-{[3-chloro-4-(tetrahydro-2H-pyran-4-ylmethoxy)phenyl]sulfonyl}-2-(1H-pyrrolo[2,3-b]pyridin-5-yloxy)benzamide], the Ki turned out to be 0.601 nM.

Regarding `COC(=O)N1CCOC(CNc2ccc(S(=O)(=O)NC(=O)c3ccc(N4CCN(CC5=C(c6ccc(Cl)cc6)CC(C)(C)CC5)CC4)cc3Oc3cnc4[nH]ccc4c3)cc2[N+](=O)[O-])C1` (stereo not drawn) [Example 317, methyl 2-{[(4-{[4-(4-{[2-(4-chlorophenyl)-4,4-dimethylcyclohex-1-en-1-yl]methyl}piperazin-1-yl)-2-(1H-pyrrolo[2,3-b]pyridin-5-yloxy)benzoyl]sulfamoyl}-2-nitrophenyl)amino]methyl}morpholine-4-carboxylate], the Ki was less than 0.01 nM.

For the molecule `CCN(C)C(=O)N1CCOC(CNc2ccc(S(=O)(=O)NC(=O)c3ccc(N4CCN(CC5=C(c6ccc(Cl)cc6)CC(C)(C)CC5)CC4)cc3Oc3cnc4[nH]ccc4c3)cc2[N+](=O)[O-])C1` (stereo not drawn) [Example 318, 2-{[(4-{[4-(4-{[2-(4-chlorophenyl)-4,4-dimethylcyclohex-1-en-1-yl]methyl}piperazin-1-yl)-2-(1H-pyrrolo[2,3-b]pyridin-5-yloxy)benzoyl]sulfamoyl}-2-nitrophenyl)amino]methyl}-N-ethyl-N-methylmorpholine-4-carboxamide], the Ki was less than 0.01 nM.

For `CC1(C)CCC(CN2CCN(c3ccc(C(=O)NS(=O)(=O)c4ccc(NCC5CN(S(C)(=O)=O)CCO5)c([N+](=O)[O-])c4)c(Oc4cnc5[nH]ccc5c4)c3)CC2)=C(c2ccc(Cl)cc2)C1` (stereo not drawn) [Example 319, 4-(4-{[2-(4-chlorophenyl)-4,4-dimethylcyclohex-1-en-1-yl]methyl}piperazin-1-yl)-N-{[4-({[4-(methylsulfonyl)morpholin-2-yl]methyl}amino)-3-nitrophenyl]sulfonyl}-2-(1H-pyrrolo[2,3-b]pyridin-5-yloxy)benzamide], the Ki is less than 0.01 nM.

For the molecule `CC1(C)CCC(CN2CCN(c3ccc(C(=O)NS(=O)(=O)c4ccc(NCCCN(C5CCC5)C5CC5)c([N+](=O)[O-])c4)c(Oc4cnc5[nH]ccc5c4)c3)CC2)=C(c2ccc(Cl)cc2)C1` [Example 320, 4-(4-{[2-(4-chlorophenyl)-4,4-dimethylcyclohex-1-en-1-yl]methyl}piperazin-1-yl)-N-{[4-({3-[cyclobutyl(cyclopropyl)amino]propyl}amino)-3-nitrophenyl]sulfonyl}-2-(1H-pyrrolo[2,3-b]pyridin-5-yloxy)benzamide], the Ki was less than 0.01 nM.

Take `O=C(NS(=O)(=O)c1ccc(NCC2CCOCC2)c([N+](=O)[O-])c1)c1ccc(N2CCN(CC3=C(c4ccc(Cl)cc4)CCC(F)(F)C3)CC2)cc1Oc1cnc2[nH]ccc2c1` [Example 321, 4-(4-{[2-(4-chlorophenyl)-5,5-difluorocyclohex-1-en-1-yl]methyl}piperazin-1-yl)-N-({3-nitro-4-[(tetrahydro-2H-pyran-4-ylmethyl)amino]phenyl}sulfonyl)-2-(1H-pyrrolo[2,3-b]pyridin-5-yloxy)benzamide]: the Ki is less than 0.01 nM.

In the case of `CC1(C)CCC(CN2CCN(c3ccc(C(=O)NS(=O)(=O)c4ccc(OCC5(F)CCN(C6COC6)CC5)c(Cl)c4)c(Oc4cnc5[nH]ccc5c4)c3)CC2)=C(c2ccc(Cl)cc2)C1` [Example 322, N-[(3-chloro-4-{[4-fluoro-1-(oxetan-3-yl)piperidin-4-yl]methoxy}phenyl)sulfonyl]-4-(4-{[2-(4-chlorophenyl)-4,4-dimethylcyclohex-1-en-1-yl]methyl}piperazin-1-yl)-2-(1H-pyrrolo[2,3-b]pyridin-5-yloxy)benzamide], the Ki is less than 0.01 nM.

In the case of `CC1(C)CCC(CN2CCN(c3ccc(C(=O)NS(=O)(=O)c4ccc(OCC5CCOC5)c(Cl)c4)c(Oc4cnc5[nH]ccc5c4)c3)CC2)=C(c2ccc(Cl)cc2)C1` (stereo not drawn) [Example 323, 4-(4-{[2-(4-chlorophenyl)-4,4-dimethylcyclohex-1-en-1-yl]methyl}piperazin-1-yl)-N-{[3-chloro-4-(tetrahydrofuran-3-ylmethoxy)phenyl]sulfonyl}-2-(1H-pyrrolo[2,3-b]pyridin-5-yloxy)benzamide], the Ki was 0.104 nM.

Consider `O=C(NS(=O)(=O)c1ccc(NC[C@H]2CC[C@H](O)CC2)c([N+](=O)[O-])c1)c1ccc(N2CCN(CC3=C(c4ccc(Cl)cc4)CCC(F)(F)C3)CC2)cc1Oc1cnc2[nH]ccc2c1` [Example 324, 4-(4-{[2-(4-chlorophenyl)-5,5-difluorocyclohex-1-en-1-yl]methyl}piperazin-1-yl)-N-[(4-{[(trans-4-hydroxycyclohexyl)methyl]amino}-3-nitrophenyl)sulfonyl]-2-(1H-pyrrolo[2,3-b]pyridin-5-yloxy)benzamide], for which the Ki is less than 0.01 nM.

As to `O=C(NS(=O)(=O)c1ccc(OCC2(F)CCOCC2)c(Cl)c1)c1ccc(N2CCN(CC3=C(c4ccc(Cl)cc4)CCC4(CCN(C5COC5)CC4)C3)CC2)cc1Oc1cnc2[nH]ccc2c1` [Example 325, N-({3-chloro-4-[(4-fluorotetrahydro-2H-pyran-4-yl)methoxy]phenyl}sulfonyl)-4-(4-{[9-(4-chlorophenyl)-3-(oxetan-3-yl)-3-azaspiro[5.5]undec-8-en-8-yl]methyl}piperazin-1-yl)-2-(1H-pyrrolo[2,3-b]pyridin-5-yloxy)benzamide], the Ki was less than 0.01 nM.

Consider `CC1(C)CCC(CN2CCN(c3ccc(C(=O)NS(=O)(=O)c4ccc(NC[C@@H]5CN(C6CC6)CCO5)c([N+](=O)[O-])c4)c(Oc4cnc5[nH]ccc5c4)c3)CC2)=C(c2ccc(Cl)cc2)C1` [Example 326, 4-(4-{[2-(4-chlorophenyl)-4,4-dimethylcyclohex-1-en-1-yl]methyl}piperazin-1-yl)-N-{[4-({[(2R)-4-cyclopropylmorpholin-2-yl]methyl}amino)-3-nitrophenyl]sulfonyl}-2-(1H-pyrrolo[2,3-b]pyridin-5-yloxy)benzamide], for which the Ki is less than 0.01 nM.

On to `CC1(C)CCC(CN2CCN(c3ccc(C(=O)NS(=O)(=O)c4ccc(NC[C@H]5CN(C6CC6)CCO5)c([N+](=O)[O-])c4)c(Oc4cnc5[nH]ccc5c4)c3)CC2)=C(c2ccc(Cl)cc2)C1` [Example 327, 4-(4-{[2-(4-chlorophenyl)-4,4-dimethylcyclohex-1-en-1-yl]methyl}piperazin-1-yl)-N-{[4-({[(2S)-4-cyclopropylmorpholin-2-yl]methyl}amino)-3-nitrophenyl]sulfonyl}-2-(1H-pyrrolo[2,3-b]pyridin-5-yloxy)benzamide], for which the Ki was less than 0.01 nM.

In the case of `O=C(NS(=O)(=O)c1ccc(NCC2CCOCC2)c([N+](=O)[O-])c1)c1ccc(N2CCN(CC3=C(c4ccc(Cl)cc4)CC4(CC3)CC4)CC2)cc1Oc1cnc2[nH]ccc2c1` [Example 328, 4-(4-{[5-(4-chlorophenyl)spiro[2.5]oct-5-en-6-yl]methyl}piperazin-1-yl)-N-({3-nitro-4-[(tetrahydro-2H-pyran-4-ylmethyl)amino]phenyl}sulfonyl)-2-(1H-pyrrolo[2,3-b]pyridin-5-yloxy)benzamide], the Ki is less than 0.01 nM.

As for `CC1(C)CCC(CN2CCN(c3ccc(C(=O)NS(=O)(=O)c4cnc(OCC5CCC(N(C6CC6)C6COC6)CC5)c(Cl)c4)c(Oc4cnc5[nH]ccc5c4)c3)CC2)=C(c2ccc(Cl)cc2)C1` (stereo not drawn) [Example 329, N-{[5-chloro-6-({4-[cyclopropyl(oxetan-3-yl)amino]cyclohexyl}methoxy)pyridin-3-yl]sulfonyl}-4-(4-{[2-(4-chlorophenyl)-4,4-dimethylcyclohex-1-en-1-yl]methyl}piperazin-1-yl)-2-(1H-pyrrolo[2,3-b]pyridin-5-yloxy)benzamide], the inhibition constant Ki is 0.03 nM.
